Reference: US20220251187A1, “P2X7 RECEPTOR TARGETED THERAPY” (BIOSCEPTRE (AUST) PTY LTD, priority 2019, published 2022)

Key:
Type in all cases: cell-based
Kelly cells [1] = assay: CellTiter-Blue cell viability assay after chemotherapy; conditions: increasing doses, 72 hours, FIG. 1C, 1D
Description: (§1) 4,000 cells were seeded in a 96 well plate and allowed to adhere over-night. Cells were then treated with increasing amount of chemotherapy or vehicle control for 72 hours to induce varying amount of cell killing. Cell viability was then measured using CellTiter-Blue Cell Viability Assay form Promega following manufacturer's instruction.

Kelly cells [2] = assay: nfP2X7 antibody binding to live cells by flow cytometry after chemotherapy; conditions: doxorubicin 0.0625 μM to 0.25 μM or 5 Fu 1 μM to 8 μM, 72 hours, FIG. 2B, 2C
Description: (§2) 500,000 cells were seeded in a 6 well plate and allowed to adhere over-night. Cells were then treated with increasing amount of chemotherapy or vehicle control for 72 hours to induce varying amount of cell killing. The remaining live cells were dissociated in PBS based enzyme-free dissociation buffer, washed and re-suspended in staining buffer (PBS, 2% FCS). Cells were then stained for 1 h with primary antibody raised against non-functional P2X7 (here 2-2-1hFc), washed 3 times in staining buffer prior to a 1 h incubation with fluorescently coupled secondary antibody and 7AAD. Fluorescence staining on live cells was acquired using a BD Accuri flow cytometer and analysed with FlowJo-flow cytometry analysis software. Median fluorescence intensity of the live cell population was analysed using 7AAD live dead staining.

P2X7 receptor = assay: nfP2X7 induction by Condition Media from Doxorubicin treated RPMI-8226 cells with P2X7 inhibitor; conditions: Condition Media from RPMI-8226 treated with Doxorubicin; FIG. 6b
[3] = system: myeloma RPMI-8226 cell line; assay: Ethidium influx in response to BzATP stimulation (P2X7 pore opening); conditions: 0.5 mM BzATP, FIG. 1A
Description: Normalised ethidium influx in response to 0.5 mM BzATP stimulation in the myeloma RPMI-8226 and neuroblastoma Kelly cell lines. Mean of three independent experiments is shown.

RPMI-8226 cells [4] = assay: CellTiter-Blue cell viability assay after chemotherapy; conditions: increasing doses, 72 hours, FIG. 1B
Description: as §1

RPMI-8226 cells [5] = assay: nfP2X7 antibody binding to live cells by flow cytometry after chemotherapy; conditions: doxorubicin 0.0625 μM to 0.25 μM, 72 hours, FIG. 2A
Description: as §2

nfP2X7 = assay: HMGB1-driven increase in nfP2X7; conditions: FIG. 6a

O=c1[nH]cc(F)c(=O)[nH]1 [5 Fu, Fluorouracil]
Effect on cell viability (CTB assay) (Kelly cells [1]): cell death
Effect on nfP2X7 antibody binding to live cells (Kelly cells [2]): increased nfPX7 antibody binding

COc1ccc(CC(=O)NC(N=C(NC#N)Nc2cccc3ncccc23)C(C)(C)C)cc1OC (stereo not drawn) [A 740003, N-[1-[[(Cyanoamino)(5-quinolinylamino)methylene]amino]-2,2-dimethylpropyl]-3,4-dimethoxybenzeneacetamide]
Block of conditioned media induced nfP2X7 induction (P2X7 receptor): does not block

Nc1ncnc2c1ncn2[C@@H]1O[C@H](COP(=O)(O)OP(=O)(O)OP(=O)(O)O)[C@@H](OC(=O)c2ccc(C(=O)c3ccccc3)cc2)[C@H]1O [BzATP]
P2X7 pore opening (normalised ethidium influx) [3]: able to open the P2X7 pore

COc1cccc2c1C(=O)c1c(O)c3c(c(O)c1C2=O)C[C@@](O)(C(=O)CO)C[C@@H]3O[C@H]1C[C@H](N)[C@H](O)[C@H](C)O1 [Doxorubicin]
Effect on cell viability (CTB assay) (Kelly cells [1]): cell death
Effect on cell viability (CTB assay) (RPMI-8226 cells [4]): cell death
Effect on nfP2X7 antibody binding to live cells (Kelly cells [2]): increased nfPX7 antibody binding
Effect on nfP2X7 antibody binding to live cells (RPMI-8226 cells [5]): increased nfPX7 antibody binding

B1: HMGB1: DAMP released by chemo- and radio-therapy (protein, UniProt P09429 1-215, looked up)
High mobility group protein B1: MGKGDPKKPRGKMSSYAFFVQTCREEHKKKHPDASVNFSEFSKKCSERWKTMSAKEKGKFEDMAKADKARYEREMKTYIPPKGETKKKFKDPNAPKRPPSAFFLFCSEYRPKIKGEHPGLSIGDVAKKLGEMWNNTAADDKQPYEKKAAKLKEKYEKDIAAYRAKGKPDAAKKGVVKAEKSKKKKEEEEDEEDEEDEEEEEDEEDEDEEEDDDDE
Effect on nfP2X7 level (nfP2X7): drives the increase in nfP2X7
